Assay results as given in patent US20100113527A1, “CRYSTALLINE FORMS OF DEXLANSOPRAZOLE” (Teva Pharmaceutical Industries Ltd., priority 2008, published 2010).

Test: Stability of crystalline form against polymorphic transformation at 60% relative humidity (PXRD comparison, FIG. 2)
Assay type: physicochemical
Excerpt: FIG. 2 illustrates an X-ray powder diffraction pattern of form X of dexLansoprazole compared with the same form X after a week at 60% relative humidity.
As used herein in connection with form X, the term “stable” refers to stability against transformation, in which no more than about 20% of a polymorphic form transforms to another form under no less than about 60% relative humidity at about room temperature. When made according to the preferred embodiments of the present invention, less than 20% of form X transforms to any other form upon exposure to a RH of 60% at room temperature for a period of 7 days.
For ARL Powder diffractometer (All XRD Figures except FIG. 13):
Sample: Spin/Oscillate mode Range: 2-40 degrees two-theta Scan mode: Continuous scan Step size: 0.05 deg Scan rate: 3 deg./min

Cc1c(OCC(F)(F)F)ccnc1C[S@@+]([O-])c1nc2ccccc2[nH]1 [form X, (R)-2-[(3-methyl-4-(2,2,2-trifluoroethoxy)pyridin-2-yl)methylsulfinyl]-1H-benzoimidazole]
amount of the form that transforms to any other form (exposure to RH of 60% at room temperature for 7 days): less than 20% | stability of the crystalline form (PXRD pattern after storage) (relative humidity of 60%, room temperature, 7 days, PXRD, FIG. 2): retains its PXRD pattern
